# Assay results: patent publication US20130172294A1, “Treatment with VB-201” (Vascular Biogenics Ltd., priority 2010, published 2013)
# Test: Effect of food and capsule coating on single-dose pharmacokinetics (Example 3)
# Format: in vivo, human
# Experimental: Determination of VB-201 concentrations in plasma was performed using an HPLC-MS/MS (high performance liquid chromatography with tandem mass spectrometric detection) assay. Calibration was for a range of from 5 to 500 ng/ml for low doses and from 50 to 5000 ng/ml for high doses. Pharmacokinetic parameters were estimated by using a non-compartmental method, except for the AUC (area under curve), which was determined using a (log-) trapezoidal rule as the area above the previous trough level. All calculations were made using PKWizard (developed by Russell Barbare and Dr. […] was validated against WinNonlin (Pharsight Corp.), which is an FDA-recognized validated program. Pharmacokinetic parameters were calculated by the program according to standard methods used in the art. Calculation of the pharmacokinetic characteristics was based on the actual blood sampling time (in hours), with predose times set to zero. Concentrations below the LLOQ (lower limit of quantification; 4.974 ng/ml) were assumed to be zero. The effects of food on the pharmacokinetics of enteric coated and non-coated VB-201 capsules were investigated in a double-blind, placebo-controlled study in healthy subjects. Cohorts of six subjects each received a single dose of 10 mg, 2×10 mg or 20 mg VB-201 in the morning. […] Subjects were randomly assigned to receive the drug when fed (i.e., following completion of a standardized high fat meal) or when fasting (i.e., fasting for at least 10 hours). […] Subjects then underwent an additional 8 day washout period, after which subjects underwent a second administration. Subjects who received the first administration when fasting, received the second administration when fed, and subjects who received the first administration when fed, received the second administration when fasting. Following the second administration, blood samples were taken at the same times post-dose as previously. Concentration-time curves were constructed for time periods of up to 144 hours. Pharmacokinetic parameters were calculated based on data for the first 24 hours and for the whole 144 hours. […] Nevertheless, parameters were also calculated from data covering the first 24 hours in order to compare parameters with previous studies. Statistical comparisons of doses, coated vs. non-coated capsules, feeding vs. fasting and coating-feeding interactions were performed using a mixed model ANOVA in an SAS 8.02 software package (SAS Institute, Cary, N.C.) using PROC MIXED
smiles,measurement,setting,value
"CCCCCCCCCCCCCCCCOCC(COP(=O)([O-])OCC[N+](C)(C)C)OCCCCC(=O)O (stereo not shown) [VB-201, 1-hexadecyl-2-(4′-carboxybutyl)-glycerol-3-phosphocholine]","AUC (0-infinity, from 24)",1 × 20 mg non-coated fasting,16958 ng·h/mL
same,"AUC (0-infinity, from 144)",1 × 20 mg non-coated fasting,29478 ng·h/mL
same,AUC(0-24),1 × 20 mg non-coated fasting,10013 ng·h/mL
same,AUC(0-144),1 × 20 mg non-coated fasting,26650 ng·h/mL
same,AUMC (0-24),1 × 20 mg non-coated fasting,122207 hours^2*ng/ml
same,AUMC (0-infinity),1 × 20 mg non-coated fasting,1763607 hours^2*ng/ml
same,Cl/F (0-24),1 × 20 mg non-coated fasting,1.301 L/h
same,Cl/F (from 144),1 × 20 mg non-coated fasting,0.702 L/h
same,Cmax,1 × 20 mg non-coated fasting,660.4 ng/mL
same,Ke (from 24),1 × 20 mg non-coated fasting,0.0486 h⁻¹
same,Ke (from 144),1 × 20 mg non-coated fasting,0.0166 h⁻¹
same,MTT (0-24),1 × 20 mg non-coated fasting,12.0 h
same,MTT (from 144),1 × 20 mg non-coated fasting,61.0 h
same,T1/2 (from 24),1 × 20 mg non-coated fasting,14.6 h
same,T1/2 (from 144),1 × 20 mg non-coated fasting,43.5 h
same,Tmax,1 × 20 mg non-coated fasting,8.33 h
same,"AUC (0-infinity, from 24)",1 × 20 mg non-coated fed,23552 ng·h/mL
same,"AUC (0-infinity, from 144)",1 × 20 mg non-coated fed,26424 ng·h/mL
same,AUC(0-24),1 × 20 mg non-coated fed,8334 ng·h/mL
same,AUC(0-144),1 × 20 mg non-coated fed,24282 ng·h/mL
same,AUMC (0-24),1 × 20 mg non-coated fed,111005 hours^2*ng/ml
same,AUMC (0-infinity),1 × 20 mg non-coated fed,1555946 hours^2*ng/ml
same,Cl/F (0-24),1 × 20 mg non-coated fed,1.197 L/h
same,Cl/F (from 144),1 × 20 mg non-coated fed,0.852 L/h
same,Cmax,1 × 20 mg non-coated fed,546.4 ng/mL
same,Ke (from 24),1 × 20 mg non-coated fed,0.0332 h⁻¹
same,Ke (from 144),1 × 20 mg non-coated fed,0.0193 h⁻¹
same,MTT (0-24),1 × 20 mg non-coated fed,13.0 h
same,MTT (from 144),1 × 20 mg non-coated fed,57.2 h
same,T1/2 (from 24),1 × 20 mg non-coated fed,25.2 h
same,T1/2 (from 144),1 × 20 mg non-coated fed,36.4 h
same,Tmax,1 × 20 mg non-coated fed,8.17 h
same,"AUC (0-infinity, from 24)",2 × 10 mg coated fasting,10388 ng·h/mL
same,"AUC (0-infinity, from 144)",2 × 10 mg coated fasting,24950 ng·h/mL
same,AUC(0-24),2 × 10 mg coated fasting,6427 ng·h/mL
same,AUC(0-144),2 × 10 mg coated fasting,20269 ng·h/mL
same,AUMC (0-24),2 × 10 mg coated fasting,83132 hours^2*ng/ml
same,AUMC (0-infinity),2 × 10 mg coated fasting,2246560 hours^2*ng/ml
same,Cl/F (0-24),2 × 10 mg coated fasting,3.318 L/h
same,Cl/F (from 144),2 × 10 mg coated fasting,1.815 L/h
same,Cmax,2 × 10 mg coated fasting,424.6 ng/mL
same,Ke (from 24),2 × 10 mg coated fasting,0.0493 h⁻¹
same,Ke (from 144),2 × 10 mg coated fasting,0.0174 h⁻¹
same,MTT (0-24),2 × 10 mg coated fasting,12.9 h
same,MTT (from 144),2 × 10 mg coated fasting,69.2 h
same,T1/2 (from 24),2 × 10 mg coated fasting,14.9 h
same,T1/2 (from 144),2 × 10 mg coated fasting,48.0 h
same,Tmax,2 × 10 mg coated fasting,9.67 h
same,"AUC (0-infinity, from 24)",2 × 10 mg coated fed,15799 ng·h/mL
same,"AUC (0-infinity, from 144)",2 × 10 mg coated fed,24463 ng·h/mL
same,AUC(0-24),2 × 10 mg coated fed,5008 ng·h/mL
same,AUC(0-144),2 × 10 mg coated fed,21417 ng·h/mL
same,AUMC (0-24),2 × 10 mg coated fed,74749 hours^2*ng/ml
same,AUMC (0-infinity),2 × 10 mg coated fed,1794144 hours^2*ng/ml
same,Cl/F (0-24),2 × 10 mg coated fed,2.067 L/h
same,Cl/F (from 144),2 × 10 mg coated fed,1.239 L/h
same,Cmax,2 × 10 mg coated fed,422.3 ng/mL
same,Ke (from 24),2 × 10 mg coated fed,0.0427 h⁻¹
same,Ke (from 144),2 × 10 mg coated fed,0.0196 h⁻¹
same,MTT (0-24),2 × 10 mg coated fed,15.1 h
same,MTT (from 144),2 × 10 mg coated fed,64.6 h
same,T1/2 (from 24),2 × 10 mg coated fed,22.8 h
same,T1/2 (from 144),2 × 10 mg coated fed,37.7 h
same,Tmax,2 × 10 mg coated fed,14.33 h
same,"AUC (0-infinity, from 24)",2 × 10 mg non-coated fasting,14643 ng·h/mL
same,"AUC (0-infinity, from 144)",2 × 10 mg non-coated fasting,25734 ng·h/mL
same,AUC(0-24),2 × 10 mg non-coated fasting,10036 ng·h/mL
same,AUC(0-144),2 × 10 mg non-coated fasting,24028 ng·h/mL
same,AUMC (0-24),2 × 10 mg non-coated fasting,117485 hours^2*ng/ml
same,AUMC (0-infinity),2 × 10 mg non-coated fasting,1319516 hours^2*ng/ml
same,Cl/F (0-24),2 × 10 mg non-coated fasting,1.444 L/h
same,Cl/F (from 144),2 × 10 mg non-coated fasting,0.810 L/h
same,Cmax,2 × 10 mg non-coated fasting,724.4 ng/mL
same,Ke (from 24),2 × 10 mg non-coated fasting,0.0606 h⁻¹
same,Ke (from 144),2 × 10 mg non-coated fasting,0.0195 h⁻¹
same,MTT (0-24),2 × 10 mg non-coated fasting,11.7 h
same,MTT (from 144),2 × 10 mg non-coated fasting,51.5 h
same,T1/2 (from 24),2 × 10 mg non-coated fasting,11.7 h
same,T1/2 (from 144),2 × 10 mg non-coated fasting,36.3 h
same,Tmax,2 × 10 mg non-coated fasting,8.67 h
same,"AUC (0-infinity, from 24)",2 × 10 mg non-coated fed,15305 ng·h/mL
same,"AUC (0-infinity, from 144)",2 × 10 mg non-coated fed,25822 ng·h/mL
same,AUC(0-24),2 × 10 mg non-coated fed,8708 ng·h/mL
same,AUC(0-144),2 × 10 mg non-coated fed,24104 ng·h/mL
same,AUMC (0-24),2 × 10 mg non-coated fed,109878 hours^2*ng/ml
same,AUMC (0-infinity),2 × 10 mg non-coated fed,1409500 hours^2*ng/ml
same,Cl/F (0-24),2 × 10 mg non-coated fed,1.394 L/h
same,Cl/F (from 144),2 × 10 mg non-coated fed,0.802 L/h
same,Cmax,2 × 10 mg non-coated fed,652.1 ng/mL
same,Ke (from 24),2 × 10 mg non-coated fed,0.0528 h⁻¹
same,Ke (from 144),2 × 10 mg non-coated fed,0.0195 h⁻¹
same,MTT (0-24),2 × 10 mg non-coated fed,12.7 h
same,MTT (from 144),2 × 10 mg non-coated fed,54.3 h
same,T1/2 (from 24),2 × 10 mg non-coated fed,15.4 h
same,T1/2 (from 144),2 × 10 mg non-coated fed,36.1 h
same,Tmax,2 × 10 mg non-coated fed,8.50 h
same,effect of enteric coatings on Tmax,enteric coated vs non-coated,increased
